Test results reported in EP4748847A1, “PEPTIDE COMPLEX HAVING VEGFR -2 AGONIST ACTIVITY” (Peptidream Inc, priority 2023, dated 2025).
*1 amine or outer side, *2 acyl side, *3 side chain or, on linkers, in order; H or OH if unused. Where a SMILES comes first, the peptide text is derived from it. Bridges are numbered along the chain shown (N, C = ends). Roman numbers before positions name the chains, in order. [ ]: non-standard residue; d: D form. CO(CH2)2(OCH2CH2)17CO = O=C(CCOCCOCCOCCOCCOCCOCCOCCOCCOCCOCCOCCOCCOCCOCCOCCOCCOCCC(=O)[*:2])[*:1]; X2 = O=C(OCCOCCOCCOCCOCCOCCOCCOCCOCCOCCOCCOCCOC(=O)[*:2])[*:1]; Phe(4-guanidino) = N=C(N)Nc1ccc(C[C@H](N)C(=O)O)cc1; hTyr = N[C@@H](CCc1ccc(O)cc1)C(=O)O; Tle = CC(C)(C)[C@H](N)C(=O)O

What was measured:
ERK = test: pERK AlphaLISA assay (ERK phosphorylation, p-Erk1/2 Thr202/Tyr204) in HUVEC lysate; assay type: cell-based, human; conditions: HUVEC lysate of the pVEGFR assay; % activity, maximum VEGF165a signal = 100%, unstimulated = 0%; peptide 10, 100 nM (dimer structures 2-41)
Experimental: To evaluate the intracellular signaling activation ability of the VEGFR-2 agonist peptides of the present invention, ERK phosphorylation was verified. Using the lysate employed in the pVEGFR AlphaLISA assay, the assay was performed according to the protocol of the AlphaLISA SureFire Ultra p-Erk1/2 (Thr202/Tyr204) Assay Kit (PerkinElmer). Signal detection was performed using a SpectraMax Paradigm multimode microplate reader (Molecular Devices). The obtained signals were analyzed using GraphPad Prism, and % activity was calculated with the maximum signal induced by VEGF165a set as 100% and the unstimulated control as 0%.
(§1) The VEGF165a concentration was evaluated at five points (0.08, 0.31, 1.25, 5, 20 nM) using 1/4-fold dilutions starting from 20 nM to determine the maximum value (100%). Peptide concentrations tested were: 3.2, 16, 80 nM for dimer structure number 10, 100 nM for dimer structures numbers 2-41; and 1.25, 5, 20 nM for dimer structures numbers 42-57.
For % activity, peptides showing ≥50% activity at 3.2 nM were designated 1-A, those showing ≥50% activity at 16 nM were designated 1-B, those showing ≥50% activity at 80 nM were designated 1-C, and those showing ≥1% but <50% activity at 80 nM were designated 1-D. […]

VEGFR-2 = target: T1, VEGFR-2 (Homo sapiens, UniProt P35968); test: pVEGFR AlphaLISA assay (VEGFR-2 phosphorylation, p-Tyr1175) in HUVECs; assay type: cell-based; conditions: 10 minutes stimulation, % activity, maximum VEGF165a signal = 100%, unstimulated = 0%
T1 construct: endogenous in cells; host or cells: HUVEC
T1 sequence (P35968 20-1356): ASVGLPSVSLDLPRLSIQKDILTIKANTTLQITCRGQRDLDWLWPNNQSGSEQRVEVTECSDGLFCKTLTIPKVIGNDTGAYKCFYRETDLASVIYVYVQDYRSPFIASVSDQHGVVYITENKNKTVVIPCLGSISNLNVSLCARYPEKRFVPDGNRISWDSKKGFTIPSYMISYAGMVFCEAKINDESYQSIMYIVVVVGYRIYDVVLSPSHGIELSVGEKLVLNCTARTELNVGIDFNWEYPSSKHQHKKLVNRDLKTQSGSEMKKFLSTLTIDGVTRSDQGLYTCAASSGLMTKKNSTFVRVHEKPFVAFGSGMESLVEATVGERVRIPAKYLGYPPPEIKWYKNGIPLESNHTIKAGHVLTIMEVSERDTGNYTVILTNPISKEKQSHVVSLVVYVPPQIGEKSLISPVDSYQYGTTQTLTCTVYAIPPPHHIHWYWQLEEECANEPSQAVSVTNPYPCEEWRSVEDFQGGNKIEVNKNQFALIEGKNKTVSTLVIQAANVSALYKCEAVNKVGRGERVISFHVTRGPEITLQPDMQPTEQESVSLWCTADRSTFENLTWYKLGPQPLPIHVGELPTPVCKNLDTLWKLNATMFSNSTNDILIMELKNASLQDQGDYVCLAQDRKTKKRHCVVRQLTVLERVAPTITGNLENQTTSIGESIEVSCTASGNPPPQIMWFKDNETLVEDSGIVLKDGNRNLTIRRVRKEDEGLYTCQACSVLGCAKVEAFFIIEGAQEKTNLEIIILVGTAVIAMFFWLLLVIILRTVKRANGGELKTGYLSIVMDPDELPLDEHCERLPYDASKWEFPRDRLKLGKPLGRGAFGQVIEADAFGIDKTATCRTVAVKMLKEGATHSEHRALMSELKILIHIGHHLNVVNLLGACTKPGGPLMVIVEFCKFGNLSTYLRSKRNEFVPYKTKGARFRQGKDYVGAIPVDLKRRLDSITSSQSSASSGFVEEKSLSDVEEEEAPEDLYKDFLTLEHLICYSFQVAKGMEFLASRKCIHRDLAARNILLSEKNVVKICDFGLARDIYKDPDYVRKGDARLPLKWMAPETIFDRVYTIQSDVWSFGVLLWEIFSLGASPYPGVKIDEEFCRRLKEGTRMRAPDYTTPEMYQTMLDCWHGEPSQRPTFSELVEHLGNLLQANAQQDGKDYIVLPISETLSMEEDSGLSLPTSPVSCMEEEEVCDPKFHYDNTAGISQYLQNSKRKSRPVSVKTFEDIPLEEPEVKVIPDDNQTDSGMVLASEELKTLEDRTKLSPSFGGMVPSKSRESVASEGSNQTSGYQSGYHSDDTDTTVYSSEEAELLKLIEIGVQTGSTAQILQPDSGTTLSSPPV
Experimental: To evaluate the VEGFR-2 activation ability of the VEGFR-2 agonist peptides of the present invention, VEGFR-2 phosphorylation was verified. HUVECs were cultured using EGM™ -2 Endothelial Cell Growth Medium-2 BulletKit (LONZA; CC-3162). After detaching cells using Tryple (Thermo Fisher Scientific), they were seeded into a 96-well PDL-coated plate (Corning: 354461) at a density of 24,000 cells per well and cultured for 2 days. For starvation, the medium was replaced with EBM-2 medium (LONZA) containing 0.5% FBS (Thermo Fisher Scientific), 0.1% heparin (included with the above LONZA CC-3162), and 0.1% gentamicin (Nacalai), and the cells were cultured for 18 hours. Subsequently, Recombinant Human VEGF165a Protein (R&D Systems) or the peptide was added, and the cells were cultured in a CO2 incubator at 37°C. After 10 minutes of stimulation, cells were lysed using the Lysis Buffer included in the AlphaLISA SureFire Ultra VEGFR-2 (p-Tyr1175) Assay Kit (PerkinElmer) to lyse the cells. The procedure was performed according to the kit protocol, and signal detection was performed using a SpectraMax Paradigm multimode microplate reader (Molecular Devices). The obtained signals were analyzed using GraphPad Prism, and % activity was calculated with the maximum signal induced by VEGF165a set as 100% and the unstimulated control as 0%.
as §1, with “structure number 1; 10, 100” for “structure number 10, 100”, “numbers 42-57. […]” for “numbers 42-57.”
Peptides showing 50% or more activity at 10 nM were designated 2-A, those showing 50% or more activity at 100 nM were designated 2-B, and those showing 1% or more but less than 50% activity at 100 nM were designated 2-C.
Peptides showing 50% or more activity at 1.25 nM were designated 3-A, those showing 50% or more activity at 5 nM were designated 3-B, those showing 50% or more activity at 20 nM were designated 3-C, and those showing 1% or more but less than 50% activity at 20 nM were designated 3-D.

[1] = peptide 10, 100 nM (dimer structures 2-41)
[2] = peptide 1.25, 5, 20 nM (dimer structures 42-57)

| pVEGFR2 Assay Results (VEGFR-2; [2]) | Compound | pERK Assay Results (ERK) | pVEGFR2 Assay Results (VEGFR-2; [1]) |
| --- | --- | --- | --- |
|  | CC(C)[C@@H]1NC(=O)CNC(=O)[C@H](CCCCNC(=O)OCCOCCOCCOCCOCCOCCOCCOCCOCCOCCOCCOCCOC(=O)NCCCC[C@@H]2NC(=O)[C@H](C(C)C)NC(=O)[C@H](CC(=O)O)NC(=O)[C@H](C(C)C)NC(=O)[C@H](Cc3c[nH]c4ccccc34)NC(=O)[C@H](Cc3c[nH]c4ccccc34)NC(=O)CSC[C@@H](C(=O)NCC(N)=O)NC(=O)[C@H](CC(=O)O)NC(=O)[C@H](CCc3ccc(O)cc3)NC(=O)[C@H](Cc3ccccc3)NC(=O)[C@H](Cc3ccc(O)cc3)NC(=O)[C@H](CC(N)=O)NC(=O)[C@H](C(C)C)NC(=O)CNC2=O)NC(=O)[C@H](C(C)C)NC(=O)[C@H](CC(=O)O)NC(=O)[C@H](C(C)C)NC(=O)[C@H](Cc2c[nH]c3ccccc23)NC(=O)[C@H](Cc2c[nH]c3ccccc23)NC(=O)CSC[C@@H](C(=O)NCC(N)=O)NC(=O)[C@H](CC(=O)O)NC(=O)[C@H](CCc2ccc(O)cc2)NC(=O)[C@H](Cc2ccccc2)NC(=O)[C@H](Cc2ccc(O)cc2)NC(=O)[C@H](CC(N)=O)NC1=O [compound 37] (I: {CH2CO}-WWVDVKGVNYF[hTyr]DCG-NH2 / II: {CH2CO}-WWVDVKGVNYF[hTyr]DCG-NH2; linker I:6-II:6 via X2; thioether I:N-I:14, II:N-II:14) | 2-B (50% or more activity at 100 nM) | 2-A (50% or more activity at 10 nM) |
| 3-C (50% or more activity at 20 nM) | CC(C)C[C@@H]1NC(=O)[C@H](CC(=O)O)NC(=O)[C@H](CC(=O)O)NC(=O)[C@H](CCCCNC(=O)CCOCCOCCOCCOCCOCCOCCOCCOCCOCCOCCOCCOCCOCCOCCOCCOCCOCCC(=O)NCCCC[C@@H]2NC(=O)[C@H](C(C)C)NC(=O)[C@H](CC(=O)O)NC(=O)[C@H](C(C)(C)C)NC(=O)[C@H](Cc3c[nH]c4ccccc34)NC(=O)[C@H](Cc3c[nH]c4ccccc34)NC(=O)CSC[C@@H](C(=O)NCC(N)=O)NC(=O)[C@H](CC(=O)O)NC(=O)[C@H](CCc3ccc(O)cc3)NC(=O)[C@H](Cc3ccc(NC(=N)N)cc3)NC(=O)[C@H](Cc3ccc(O)cc3)NC(=O)[C@H](CC(C)C)NC(=O)[C@H](CC(=O)O)NC(=O)[C@H](CC(=O)O)NC2=O)NC(=O)[C@H](C(C)C)NC(=O)[C@H](CC(=O)O)NC(=O)[C@H](C(C)(C)C)NC(=O)[C@H](Cc2c[nH]c3ccccc23)NC(=O)[C@H](Cc2c[nH]c3ccccc23)NC(=O)CSC[C@@H](C(=O)NCC(N)=O)NC(=O)[C@H](CC(=O)O)NC(=O)[C@H](CCc2ccc(O)cc2)NC(=O)[C@H](Cc2ccc(NC(=N)N)cc2)NC(=O)[C@H](Cc2ccc(O)cc2)NC1=O [compound 45] (I: {CH2CO}-WW[Tle]DVKDDLY[Phe(4-guanidino)][hTyr]DCG-NH2 / II: {CH2CO}-WW[Tle]DVKDDLY[Phe(4-guanidino)][hTyr]DCG-NH2; linker I:6-II:6 via CO(CH2)2(OCH2CH2)17CO; thioether I:N-I:14, II:N-II:14) |  |  |
| 3-C (50% or more activity at 20 nM) | CC(C)C[C@@H]1NC(=O)[C@H](CC(=O)O)NC(=O)[C@H](CC(N)=O)NC(=O)[C@H](CCCCNC(=O)CCOCCOCCOCCOCCOCCOCCOCCOCCOCCOCCOCCOCCOCCOCCOCCOCCOCCC(=O)NCCCC[C@@H]2NC(=O)[C@H](C(C)C)NC(=O)[C@H](CC(=O)O)NC(=O)[C@H](C(C)(C)C)NC(=O)[C@H](Cc3c[nH]c4ccccc34)NC(=O)[C@H](Cc3c[nH]c4ccccc34)NC(=O)CSC[C@@H](C(=O)NCC(N)=O)NC(=O)[C@H](CC(=O)O)NC(=O)[C@H](CCc3ccc(O)cc3)NC(=O)[C@H](Cc3ccccc3)NC(=O)[C@H](Cc3ccc(O)cc3)NC(=O)[C@H](CC(C)C)NC(=O)[C@H](CC(=O)O)NC(=O)[C@H](CC(N)=O)NC2=O)NC(=O)[C@H](C(C)C)NC(=O)[C@H](CC(=O)O)NC(=O)[C@H](C(C)(C)C)NC(=O)[C@H](Cc2c[nH]c3ccccc23)NC(=O)[C@H](Cc2c[nH]c3ccccc23)NC(=O)CSC[C@@H](C(=O)NCC(N)=O)NC(=O)[C@H](CC(=O)O)NC(=O)[C@H](CCc2ccc(O)cc2)NC(=O)[C@H](Cc2ccccc2)NC(=O)[C@H](Cc2ccc(O)cc2)NC1=O [compound 47] (I: {CH2CO}-WW[Tle]DVKNDLYF[hTyr]DCG-NH2 / II: {CH2CO}-WW[Tle]DVKNDLYF[hTyr]DCG-NH2; linker I:6-II:6 via CO(CH2)2(OCH2CH2)17CO; thioether I:N-I:14, II:N-II:14) |  |  |
|  | CC(C)C[C@@H]1NC(=O)[C@H](CC(=O)O)NC(=O)[C@H](CC(=O)O)NC(=O)[C@H](CCCCNC(=O)CCOCCOCCOCCOCCOCCOCCOCCOCCOCCOCCOCCOCCOCCOCCOCCOCCOCCC(=O)NCCCC[C@@H]2NC(=O)[C@H](C(C)C)NC(=O)[C@H](CC(=O)O)NC(=O)[C@H](C(C)(C)C)NC(=O)[C@H](Cc3c[nH]c4ccccc34)NC(=O)[C@H](Cc3c[nH]c4ccccc34)NC(=O)CSC[C@@H](C(=O)NCC(N)=O)NC(=O)[C@H](CC(=O)O)NC(=O)[C@H](C(C)C)NC(=O)[C@H](Cc3ccc(NC(=N)N)cc3)NC(=O)[C@H](Cc3ccc(O)cc3)NC(=O)[C@H](CC(C)C)NC(=O)[C@H](CC(=O)O)NC(=O)[C@H](CC(=O)O)NC2=O)NC(=O)[C@H](C(C)C)NC(=O)[C@H](CC(=O)O)NC(=O)[C@H](C(C)(C)C)NC(=O)[C@H](Cc2c[nH]c3ccccc23)NC(=O)[C@H](Cc2c[nH]c3ccccc23)NC(=O)CSC[C@@H](C(=O)NCC(N)=O)NC(=O)[C@H](CC(=O)O)NC(=O)[C@H](C(C)C)NC(=O)[C@H](Cc2ccc(NC(=N)N)cc2)NC(=O)[C@H](Cc2ccc(O)cc2)NC1=O [Dimer Structure No. 43] (I: {CH2CO}-WW[Tle]DVKDDLY[Phe(4-guanidino)]VDCG-NH2 / II: {CH2CO}-WW[Tle]DVKDDLY[Phe(4-guanidino)]VDCG-NH2; linker I:6-II:6 via CO(CH2)2(OCH2CH2)17CO; thioether I:N-I:14, II:N-II:14) |  | 2-C (1% or more but less than 50% activity at 100 nM) |
